Data: patent publication EP1145714A1, “DRUGS” (Takeda Chemical Industries, Ltd., priority 1998, dated 2000)

How the values were obtained:
[1] = test system: morphine-induced vomiting in dogs; assay: Morphine-induced vomiting in dogs, oral dosing; format: in vivo, beagle dogs; conditions: morphine 0.3 mg/kg subcutaneous
Method: Male 6 or 7 beagle dogs (8.8 to 14.5 kg) per one group were used. Morphine was subcutaneously administered at 0.3 mg/0. 03 ml/kg. 2.5 hours before morphine dosing, a small amount of a feed was given to the animals. 30 minutes thereafter, predetermined doses of the compound No. 3 were orally given. To a control animal group under no fasting was orally given a predetermined volume of 0.5 % methyl cellulose solution. A predetermined dose of ondansetron was orally given to the animals under fasting. To a control animal group of ondansetron under fasting was orally given a predetermined volume of physiological saline. The frequency of vomiting was counted up to 30 minutes after morphine dosing.
The compound No. 3 was suspended in 0.5 % methyl cellulose solution and was then orally administered at a ratio of 1 ml per 1 kg body weight. An injection of ondansetron at a concentration of 0.2 w/v % was orally dosed. Additionally, 0.5 % methyl cellulose solution was orally given at a ratio of 1 ml per 1 kg body weight, while physiological saline was orally given at a ratio of 0.5 ml per 1 kg body weight. The data relating to the frequency of vomiting, the time period (latency) until first vomiting and the time period from the occurrence of vomiting to the termination thereof were statistically analyzed by the Dunnett test or t test, with reference to the difference from the control group.
The retching suppression ratio and vomiting suppression ratio were calculated by the following formula. [Frequency of retching or vomiting in control] - [Frequency of retching or vomiting in animals dosed with compound No. 3] / [Frequency of retching or vomiting in control] x 100 (%) [formula]

[2] = test system: acute vomiting induced by a central emetic agent loperamide in dogs; assay: Acute vomiting induced by loperamide in dogs; format: in vivo, beagle dogs; conditions: loperamide 1 mg/kg subcutaneous; for B: Frequency of vomiting (mean ± SD) / C: Time period until first vomiting (minute; mean ± SD) / D: Duration of vomiting (minute; mean ± SD) / Number of dogs with vomiting/number of tested dogs: 3 hours
Method: 3 male or female beagle dogs (7.7 to 12.7 kg) per one group were used. Loperamide was subcutaneously given at 1 mg/ml/kg. 2.5 hours prior to loperamide administration, a small amount of a feed was given to the animals. 30 minutes thereafter, predetermined doses of the compound No. 3 were orally given. Similarly, 0.5 % methyl cellulose solution was orally given to a control animal group under no fasting. Predetermined doses of naloxone and ondansetron were given intravenously and orally, respectively to the animals under fasting, 30 minutes prior to loperamide administration. The frequency of vomiting was counted, up to 3 hours after loperamide administration. The compound No. 3 was dissolved in 0.5 % methyl cellulose solution, for oral dosing at a ratio of 0.25 to 1 ml per 1 kg body weight. Additionally, naloxone was intravenously given in a solution at a concentration of 0.05 % w/v. An injection of ondansetron at a concentration of 0.2 % w/v was orally given. Still additionally, 0.5 % methyl cellulose solution was orally given at a ratio of 1 ml per 1 kg body weight. The data relating to the frequency of vomiting, the latency and the time period from the occurrence of vomiting to the termination thereof were statistically analyzed by the Dunnett test, with reference to the difference from the control group.
The vomiting suppression ratio was calculated by the following formula. [Frequency of retching or vomiting in control] - [Frequency of retching or vomiting in animals dosed with compound No. 3] / [frequency of retching or vomiting in control] x 100 (%) [formula]

[3] = 1 mg/kg p.o., under fasting, 30 minutes

## Cc1ccc(-c2c3n(c(=O)c4ncccc24)CC[C@@H](C)CN(Cc2cc(C(F)(F)F)cc(C(F)(F)F)c2)C3=O)cc1 [Cpd. No.3, (9R)-7-[3,5-bis(trifluoromethyl)benzyl]-6,7,8,9,10,11-hexahydro-9-methyl-5-(4-methylphenyl)-6,13-dioxo-13H-[1,4]diazocino[2,1-g][1,7]naphthylidine]
[1]; 0.1 mg/kg p.o.
  Acute vomiting suppression ratio: 55 % NS
[1]; 0.1 mg/kg p.o., 30 minutes
  B: Frequency of vomiting (mean ± 3D): 1.0 ± 0
  C: Time period until first vomiting (minute; mean ± SD): 8.7 ± 1.2 min
  D: Duration of vomiting (minute; mean ± SD): 0 min
  Number of dogs with vomiting/number of tested dogs: 3/3
[1]; 0.3 mg/kg p.o.
  Acute vomiting suppression ratio: 86 % NS
  Effect on vomiting (in words): significantly suppressed
[1]; 0.3 mg/kg p.o., 30 minutes
  B: Frequency of vomiting (mean ± 3D): 0.3 ± 0.3a
  C: Time period until first vomiting (minute; mean ± SD): 22.0 ± 8.0 a minute
  D: Duration of vomiting (minute; mean ± SD): 0 min
  Number of dogs with vomiting/number of tested dogs: 1/3
[1]; 1 mg/kg p.o.
  Acute vomiting suppression ratio: 100 % b
  Effect on vomiting (in words): completely suppressed
[1]; 1 mg/kg p.o., 30 minutes
  B: Frequency of vomiting (mean ± 3D): 0 b
  C: Time period until first vomiting (minute; mean ± SD): 30 b minute
  D: Duration of vomiting (minute; mean ± SD): 0 min
  Number of dogs with vomiting/number of tested dogs: 0/3
[2]; 0.01 mg/kg p.o.
  Vomiting suppression ratio: 20 % NS
  B: Frequency of vomiting (mean ± SD): 8.0 ± 2.5
  C: Time period until first vomiting (minute; mean ± SD): 0.74 ± 0.07 min
  D: Duration of vomiting (minute; mean ± SD): 1.24 ± 0.21 min
  Number of dogs with vomiting/number of tested dogs: 3/3
[2]; 0.03 mg/kg or higher p.o.
  Effect on vomiting (in words): significantly suppressed
[2]; 0.03 mg/kg p.o.
  Vomiting suppression ratio: 80 % a
  B: Frequency of vomiting (mean ± SD): 2.0 ± 0.6 a
  C: Time period until first vomiting (minute; mean ± SD): 1.08 ± 0.11 min
  D: Duration of vomiting (minute; mean ± SD): 0.44 ± 0.22 min
  Number of dogs with vomiting/number of tested dogs: 3/3
[2]; 0.1 mg/kg p.o.
  Vomiting suppression ratio: 73 % a
  B: Frequency of vomiting (mean ± SD): 2.7 ± 2.2 a
  C: Time period until first vomiting (minute; mean ± SD): 1.98 ± 0.55 a minute
  D: Duration of vomiting (minute; mean ± SD): 0.59 ± 0.59 min
  Number of dogs with vomiting/number of tested dogs: 2/3
[2]; 1 mg/kg p.o.
  Vomiting suppression ratio: 67 % a
  B: Frequency of vomiting (mean ± SD): 3.3 ± 1.2 a
  C: Time period until first vomiting (minute; mean ± SD): 1.25 ± 0.35 min
  D: Duration of vomiting (minute; mean ± SD): 0.68 ± 0.34 min
  Number of dogs with vomiting/number of tested dogs: 3/3
[2]; 3 mg/kg p.o.
  Vomiting suppression ratio: 70 % a
  B: Frequency of vomiting (mean ± SD): 3.0 ± 0.6 a
  C: Time period until first vomiting (minute; mean ± SD): 1.63 ± 0.34 min
  D: Duration of vomiting (minute; mean ± SD): 0.38 ± 0.13 a minute
  Number of dogs with vomiting/number of tested dogs: 3/3
[2]; 10 mg/kg p.o.
  Effect on vomiting (in words): completely suppressed
  Vomiting suppression ratio: 100 % b
  B: Frequency of vomiting (mean ± SD): 0 b
  C: Time period until first vomiting (minute; mean ± SD): 3 b minute
  D: Duration of vomiting (minute; mean ± SD): 0 b minute
  Number of dogs with vomiting/number of tested dogs: 0/3

## Cc1nccn1CC1CCc2c(c3ccccc3n2C)C1=O (stereo not shown) [Ondansetron, ondansetron, reference compound]
[1]; 1 mg/kg p.o.
  Acute vomiting suppression ratio: 48 % NS
  Effect on vomiting (in words): did not suppress
[1]; [3]
  B: Frequency of vomiting (mean ± SD): 1.7 ± 0.3
  C: Time period until first vomiting (minute; mean ± SD): 5.0 ± 1.0 min
  D: Duration of vomiting (minute; mean ± SD): 1.0 ± 0.6 min
  Number of dogs with vomiting/number of tested dogs: 3/3
[2]; 10 mg/kg p.o.
  Effect on vomiting (in words): did not suppress
  Vomiting suppression ratio: 3 % NS
  B: Frequency of vomiting (mean ± SD): 9.7 ± 2.7
  C: Time period until first vomiting (minute; mean ± SD): 0.50 ± 0.14 min
  D: Duration of vomiting (minute; mean ± SD): 1.30 ± 0.11 min
  Number of dogs with vomiting/number of tested dogs: 3/3
